From PubChem BioAssay (NCI)
“And” between values parts separate entries of the source, which are not always exact repeats. Equal values may be shown once.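 Values below derive from 48-hour exposures of cells grown in 96-well plates, with endpoints linearly interpolated between the two concentrations bracketing the appropriate inhibition level. At the GI50, growth is halved. TGI: total growth inhibition.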

How the values were obtained:
Test in all cases: NCI anticancer screen, dose series, 48 h
[1] = tested on: 786-0 renal
[2] = tested on: A498 renal
[3] = tested on: A549 NSCLC
[4] = tested on: ACHN renal
[5] = tested on: BT-549 breast
[6] = tested on: CAKI-1 renal
[7] = tested on: CCRF-CEM leukemia
[8] = tested on: COLO 205 colon
[9] = tested on: DU-145 prostate
[10] = tested on: EKVX NSCLC
[11] = tested on: HCC-2998 colon
[12] = tested on: HCT-116 colon
[13] = tested on: HCT-15 colon
[14] = tested on: HL-60(TB) leukemia
[15] = tested on: HOP-62 NSCLC
[16] = tested on: HOP-92 NSCLC
[17] = tested on: HS 578T breast
[18] = tested on: HT29 colon
[19] = tested on: IGROV1 ovarian
[20] = tested on: K-562 leukemia
[21] = tested on: KM12 colon
[22] = tested on: LOX IMVI melanoma
[23] = tested on: M14 melanoma
[24] = tested on: MALME-3M melanoma
[25] = tested on: MCF7 breast
[26] = tested on: MDA-MB-231 breast
[27] = tested on: MDA-MB-435
[28] = tested on: MOLT-4 leukemia
[29] = tested on: NCI-H226 lung
[30] = tested on: NCI-H23 lung
[31] = tested on: NCI-H460 lung
[32] = tested on: NCI-H522 lung
[33] = tested on: NCI/ADR-RES ovarian
[34] = tested on: OVCAR-3 ovarian
[35] = tested on: OVCAR-4 ovarian
[36] = tested on: OVCAR-5 ovarian
[37] = tested on: OVCAR-8 ovarian
[38] = tested on: PC-3 prostate
[39] = tested on: RPMI-8226 leukemia
[40] = tested on: RXF 393 renal
[41] = tested on: SF-268 CNS
[42] = tested on: SF-295 CNS
[43] = tested on: SF-539 CNS
[44] = tested on: SK-MEL-2 melanoma
[45] = tested on: SK-MEL-28 melanoma
[46] = tested on: SK-MEL-5 melanoma
[47] = tested on: SK-OV-3 ovarian
[48] = tested on: SN12C renal
[49] = tested on: SNB-19 CNS
[50] = tested on: SNB-75 CNS
[51] = tested on: SW-620 colon
[52] = tested on: T-47D breast
[53] = tested on: TK-10 renal
[54] = tested on: U251 CNS
[55] = tested on: UACC-257 melanoma
[56] = tested on: UACC-62 melanoma
[57] = tested on: UO-31 renal

`C1=C/COCc2cc(ccc2OCCN2CCCC2)Nc2nccc(n2)-c2cccc(c2)COC/1` was tested, and the GI50 [1] was 1280 nM and 1400 nM, the TGI [1] was 3.14 µM and 2.88 µM and the GI50 [2] was 1250 nM and 1310 nM. For the same compound, the TGI [2] was 2.7 µM and 3.98 µM, the GI50 [3] was 1060 nM and 1140 nM and the TGI [3] was 3 µM and 3.38 µM. The GI50 [4] was 394 nM and 486 nM, the TGI [4] was 2.76 µM and 3.68 µM and the GI50 [5] was 2150 nM and 2300 nM. The TGI [5] was 5.02 µM and 4.87 µM, the GI50 [6] was 443 nM and 463 nM and the TGI [6] was 2040 nM and 2250 nM. For the same compound, the GI50 [7] was 652 nM and 1080 nM, the TGI [7] was 11.5 µM and 6.62 µM and the GI50 [8] was 443 nM and 643 nM. For the same compound, the TGI [8] was 1840 nM and 1850 nM, the GI50 [9] was 433 nM and 749 nM and the TGI [9] was 11.2 µM and 3.66 µM. For the same compound, the GI50 [10] was 1720 nM and 1760 nM, the TGI [10] was 8.83 µM and 5.74 µM and the GI50 [11] was 1180 nM and 1280 nM. For the same compound, the TGI [11] was 3.19 µM and 3.1 µM, the GI50 [12] was 457 nM and 498 nM and the TGI [12] was 2390 nM and 1780 nM. For the same compound, the GI50 [13] was 350 nM and 558 nM, the TGI [13] was 2.3 µM and 6.84 µM and the GI50 [14] was 181 nM and 522 nM. The TGI [14] was 887 nM and 2150 nM, the GI50 [15] was 1110 nM and 1360 nM and the TGI [15] was 4.39 µM and 3.23 µM. The GI50 [16] was 1200 nM and 624 nM, the TGI [16] was 6.38 µM and 3.15 µM and the GI50 [17] was 1290 nM and 1680 nM. For the same compound, the TGI [17] was 4.47 µM and 5.56 µM, the GI50 [18] was 481 nM and 542 nM and the TGI [18] was 2450 nM and 2640 nM. For the same compound, the GI50 [19] was 498 nM and 552 nM, the TGI [19] was 3.02 µM and 3.55 µM and the GI50 [20] was 639 nM and 1180 nM. For the same compound, the TGI [20] was 4.05 µM and 4.51 µM, the GI50 [21] was 149 nM and 224 nM and the TGI [21] was 1400 nM and 1570 nM. For the same compound, the GI50 [22] was 370 nM and 580 nM, the TGI [22] was 1580 nM and 2170 nM and the GI50 [23] was 669 nM and 997 nM. The TGI [23] was 2460 nM and 2430 nM, the GI50 [24] was 680 nM and 1210 nM and the TGI [24] was 2190 nM and 2890 nM. The GI50 [25] was 353 nM, the TGI [25] was 1540 nM and the GI50 [26] was 1170 nM and 798 nM. For the same compound, the TGI [26] was 3.13 µM and 2.92 µM, the GI50 [27] was 582 nM and the TGI [27] was 1990 nM and 2030 nM. The GI50 [28] was 369 nM and 689 nM, the TGI [28] was 2.54 µM and 4.09 µM and the GI50 [29] was 376 nM and 1280 nM. For the same compound, the TGI [29] was 1820 nM and 2730 nM, the GI50 [30] was 628 nM and 1140 nM and the TGI [30] was 2360 nM and 3210 nM. The GI50 [31] was 847 nM and 1080 nM, the TGI [31] was 2750 nM and 3060 nM and the GI50 [32] was 1750 nM and 1440 nM. For the same compound, the TGI [32] was 3.75 µM and 3.4 µM, the GI50 [33] was 1090 nM and 1760 nM and the TGI [33] was 4.33 µM and 6.24 µM. For the same compound, the GI50 [34] was 849 nM and 1310 nM, the TGI [34] was 2850 nM and 2890 nM and the GI50 [35] was 1550 nM and 1370 nM. The TGI [35] was 4.51 µM and 3.21 µM, the GI50 [36] was 356 nM and 717 nM and the TGI [36] was 2360 nM and 2780 nM. For the same compound, the GI50 [37] was 1280 nM and 1840 nM, the TGI [37] was 4.31 µM and 8.03 µM and the GI50 [38] was 620 nM and 1010 nM. For the same compound, the TGI [38] was 3.17 µM and 3.93 µM, the GI50 [39] was 1370 nM and 1910 nM and the TGI [39] was 4.64 µM and 5.84 µM. For the same compound, the GI50 [40] was 278 nM and 339 nM, the TGI [40] was 784 nM and 1120 nM and the GI50 [41] was 648 nM and 1050 nM. The TGI [41] was 2560 nM and 2820 nM, the GI50 [42] was 1580 nM and 1980 nM and the TGI [42] was 3.34 µM and 4.29 µM. For the same compound, the GI50 [43] was 1470 nM and 1800 nM, the TGI [43] was 3 µM and 3.32 µM and the GI50 [44] was 1550 nM and 1430 nM. The TGI [44] was 3.57 µM and 3.22 µM, the GI50 [45] was 1290 nM and 1150 nM and the TGI [45] was 2860 nM and 2430 nM. For the same compound, the GI50 [46] was 672 nM, the TGI [46] was 1820 nM and the GI50 [47] was 1450 nM and 1190 nM. The TGI [47] was 3280 nM and 2580 nM, the GI50 [48] was 587 nM and 586 nM and the TGI [48] was 2620 nM and 2940 nM. The GI50 [49] was 1340 nM and 1850 nM, the TGI [49] was 5.6 µM and 8.47 µM and the GI50 [50] was 1080 nM and 1140 nM. For the same compound, the TGI [50] was 2440 nM and 2600 nM, the GI50 [51] was 489 nM and 927 nM and the TGI [51] was 2.59 µM and 3.69 µM. For the same compound, the GI50 [52] was 509 nM and 949 nM, the TGI [52] was 3.03 µM and 3.78 µM and the GI50 [53] was 1580 nM and 1090 nM. For the same compound, the TGI [53] was 3.67 µM and 3.84 µM, the GI50 [54] was 1120 nM and 1270 nM and the TGI [54] was 2630 nM and 3140 nM. The GI50 [55] was 1650 nM and 1480 nM, the TGI [55] was 3.25 µM and 2.99 µM and the GI50 [56] was 641 nM and 1300 nM. The TGI [56] was 2120 nM and 2730 nM, the GI50 [57] was 366 nM and 758 nM and the TGI [57] was 2020 nM and 3200 nM.
